Here are results for 3 molecules from patent US10549052B2, “Nasal delivery device” (SIPNOSE LTD., priority 2012, dated 2020).

Read-outs that look alike come from different tables or passages of the source.

Series [1] can be described thus: Micro-PET-CT tissue absorption of F-DOPA, SipNose nasal application versus I/V administration. To be noted: rat. On the procedure:
The objective of the experiment was to compare nasal application with SipNose device to a systemic application by IV administration of F-DOPA (that corresponds to the drug L-DOPA) by means of brain absorption (namely the target tissue) and systemic absorption (namely non relevant tissues contamination).
• Animals were anesthetized with a Ketamine-Xylazine cocktail. • Animals were treated according to the 2 groups as below: • 1. Systemic administration of F-DOPA by I/V injection of 1 ml. Administration doses were between 17 and 83 μg, and injected radioactivity dose was around 1000 μCi. • 2. Nasal application of F-DOPA by SipNose device application of 13-20 μl. Administration doses were between 1.2 and 2.8 μg, and injected radioactivity doses were around 26 μCi. All I/V administered animals and part of the Nasal applied animals (as will be indicated) were pre-treated with 10 mg/kg Carbidopa (by IP administration) 30 min prior to L-DOPA administration to eliminate peripheral conversion to dopamine. • Animals were subjected to Micro-PET-CT. PET scans were done for 45 min following L-DOPA administration by I/V or Nasal route. • Analysis of F-DOPA absorption in the following tissues was tested: • Brain, Heart, Lungs, liver.

The nature of series [2]: Dye deposition in the olfactory epithelium following application with the present device. The format is in vivo. Particulars: rat, 15 microliter to one nostril with the present device, post mortem (FIG. 31B). The text has this: Methylene Blue solution (as in Example 1) was applied to the rat nose with the present device. 15 microliter was applied to one nostril and immediately after that the animal was sacrificed and the nasal and brain tissue were exposed to follow the dye deposition.

The procedure of series [3]: Brain uptake of a compound with low blood-brain barrier (BBB) penetration ^11C-choline, was applied by the device of the present application (refers also as SipNose). 33.2 μCi/5.3 μmol (approx. 0.551 mg) of ^11C-choline was applied by the device of the present application to a 381 gm rat. A 45 min. dynamic PET scan was performed followed by a CT scan.
It should be noted that in the above mentioned examples, the compressed gas is in volumes of about 15 ml and compressed to about 7 bar.
Comparison of brain uptake of a compound with low blood-brain barrier (BBB) penetration, when applied to the nasal cavity with the device of the present application to deposition in the respiratory epithelium in the nasal cavity.
It should be noted that in the above mentioned examples, the compressed gas is in volumes of about 5 ml and compressed to about 4 bar.
Comparison of brain uptake of a compound with low blood-brain barrier (BBB) penetration, when applied with the present device versus intravenous (I/V) injection.
The data shown are the average of three trials for the present device, and the average of two trials for each of the I/V administration and the general nasal administration. The bar heights are relative to the brain concentration of ^11C choline after I/V administration.

Where [4] appears, read: rat, injected intravenously (I/V).
Setting [5] is: rat, via the present device (FIG. 41).

Take `N[C@@H](Cc1cc(O)c(O)cc1F)C(=O)O` [F-Dopa, F-DOPA]: in series [1] (10 mg/kg Carbidopa IP 30 min prior), the “SipNose nasal application with versus without Carbidopa pre-treatment” value was “same results whether a pre-treatment with Carbidopa was given or not”. Further, in series [1] (22.5 min post treatment (t50 of the PET scan)), the “brain concentrations, SipNose nasal application versus I/V” value is on record as “comparable”. Also, in series [1] (nasal application, heart, lungs, liver), the “peripheral uptake compared to brain uptake” value is recorded as “lower peripheral concentrations than the brain F-Dopa concentrations”. Further, the “percentage of absorption in peripheral tissues relative to brain absorption, nasal versus I/V” value in series [1] (heart, lungs, liver) was “lower in the nasal treated animals than in the I/V treated animals”.
For `CN(C)c1ccc2nc3ccc(=[N+](C)C)cc-3sc2c1` [Methylene Blue], the “location of dye deposition in the nasal cavity” value in series [2] is “concentrated at the olfactory epithelium”.
As to `C[N+](C)(C)CCO` [^11C-choline], the “location of deposition in the nasal cavity” value in series [3] (live rat, PET-CT scan, present device (FIG. 31A)) is “concentrated at the olfactory epithelium”. For the same molecule, in series [3] (rat, FIG. 38B versus FIG. 37B), the “brain uptake with the present device relative to I/V application” value is reported as “more than 6 times”. Further, the “uptake to the brain” value is on record as “less than 0.2 % of the administered dose” in series [3] (rat, I/V injection (FIG. 39)); 0.6 % ID/ml in series [3] (rat, SipNose nasal application, about 15 ml gas at about 7 bar, increasing gradually thereafter, 45 min dynamic PET scan); “about 0.5 % ID/ml” in series [3] (rat, SipNose nasal application, about 15 ml gas at about 7 bar, very shortly following administration); “about 0.1 % ID/ml” in series [3] (setting [4]); “more than 1 % of the administered dose” in series [3] (rat, present device (FIG. 39)). Further, the “brain uptake as share of the total drug administrated” value in series [3] (rat, SipNose nasal application, corresponds to the % ID/ml values) was about 1.2%. Further, in series [3] (rat, applied with the present device (FIG. 38B)), the “uptake entering the brain” value is recorded as “more than 0.5 % ID/ml”. Besides, the locations of uptake entry was “greatest in the olfactory epithelium and least in the lungs” in series [3] (rat, applied with the present device (SipNose)); “mainly to the olfactory epithelium” in series [3] (rat, applied with the present device (SipNose), listed as 11C choline); “mostly to the liver” in series [3] (setting [4]). The “brain concentration relative to I/V administration” value in series [3] (rat, general nasal application, average of two trials (FIG. 40)) is on record as “the same or slightly more”; in series [3] (rat, present SipNose device, average of three trials (FIG. 40)), “more than five times as great”. The “uptake of the radioactivity in the brain” value in series [3] (rat, nasal application tuned to respiratory epithelium (about 5 ml, about 4 bar), no olfactory deposition, 45 minutes after activation) is on record as “less than 0.1%”. Also, the “uptake of the radioactivity in the pharynx” value in series [3] (rat, nasal application tuned to respiratory epithelium (about 5 ml, about 4 bar), less than a minute after activation) was “more than 0.4%”. Further, the “net uptake to non-olfactory brain tissues” value in series [3] (setting [5]) is listed as “about 2.5 μg”. Moreover, in series [3] (setting [5]), the “total uptake to the brain” value was about 6 µg. In addition, in series [3] (setting [5]), the “uptake to the olfactory bulbs” value was “about 3 μg”.
